Data published in US7211601B2, “Pharmaceutically active pyrrolidine derivatives” (Applied Research Systems Ars Holding N.V., priority 2000, dated 2007).

Experiments:
hOT-R [1] = biological target: T1, hOT-R (Homo sapiens, UniProt P30559); test: In vitro binding assay (SPA), competition with [125I]-OVTA on membranes from HEK293EBNA cells expressing the hOT receptor; parameters: expressed in transfected cells; host or cells: HEK293EBNA; conditions: 0.2 nM [125I]-OVTA, read-out: Binding affinity human OT-R IC50
T1 sequence (P30559 1-389): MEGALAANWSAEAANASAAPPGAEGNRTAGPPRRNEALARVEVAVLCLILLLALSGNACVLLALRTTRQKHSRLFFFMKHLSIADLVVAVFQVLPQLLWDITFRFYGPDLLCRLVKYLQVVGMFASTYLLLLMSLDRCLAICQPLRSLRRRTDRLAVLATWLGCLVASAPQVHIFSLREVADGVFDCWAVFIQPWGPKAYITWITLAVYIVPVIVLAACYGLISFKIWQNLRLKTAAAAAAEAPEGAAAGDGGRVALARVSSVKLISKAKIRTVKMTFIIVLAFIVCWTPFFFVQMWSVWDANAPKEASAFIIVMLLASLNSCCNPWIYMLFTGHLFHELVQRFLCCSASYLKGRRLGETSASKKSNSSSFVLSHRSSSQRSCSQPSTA
Experimental: a) In Vitro Binding Assay (SPA)
Membranes from HEK293EBNA cells expressing the hOT receptor were resuspended in buffer containing 50 mM Tris-HCl, pH 7.4,5 mM MgCl2 and 0.1% BSA (w/v). The membranes (2–4 μg) were mixed with 0.1 mg wheat-germ aglutinin (WGA) SPA bead (type A) and increasing concentrations of [^125I]-OVTA (for saturation binding experiments) or 0.2 nM [^125I]-OVTA (for competition binding experiments). Non specific binding was deter-mined in the presence of 1 μM Oxytocin. The total assay volume was 100 μl. The plates were incubated at room temperature for 30 min and counted on a Mibrobeta plate counter. The competition binding data were analysed using the iterative, nonlinear, curve-fitting program, Prism.
The binding affinities to the oxytocin receptor of the pyrrolidine derivatives claimed in the formula I were assessed using the above described in vitro biological assay. The values refer to the binding capacity of the example compounds according to formula I to the Oxytocin receptor. From the values shown in Table 1 it can be derived that said test compounds according to formula I do show a significant binding to the Oxytocin receptor.

hOT-R [2] = biological target: T1, hOT-R; test: Functional assay No. 1: inhibition of oxytocin-induced Ca2+-mobilization by FLIPR; format: cell-based; parameters: expressed in transfected cells; host or cells: HEK cells (CHO cells also mentioned); conditions: oxytocin-induced intracellular Ca2+ mobilization, read-out: Inhibition of Ca^2+ mobilization, hOT-R IC50
Experimental: c) Functional Assay No. 1: Inhibition of Ca^2+-Mobilization by FLIPR
Preparing the plates: FLIPR-plates were pre-coated with PLL 10 μg/ml+0.1% gelatine for 30 min up to 2 days at 37° C. (for HEK-cells). The cells were plated out into 96-well plates (60000 cells/well).
Labelling with fluo-4: 50 μg fluo-4 were dissolved in 20 μl pluronic acid (20% in DMSO). The dissolved fluo-4 was then diluted in 10 ml DMEM-F12 medium without FCS. The medium was removed from the plates, followed by one wash with DMEM-F12 medium. Now, 100 μl of the DMEM-F12 medium containing fluo-4 were added and the cells incubated for 1–1.5 h (CHO-cells), and 1.5–2 h (HEK-cells).
Buffer: 145 mM NaCl, 5 mM KCl, 1 mM MgCl2, 10 mM Hepes, 10 mM Glucose, EGTA. Adjust to pH 7.4.
Preparation of agonists and antagonists: A minimum of 80 μl/well of agonists and anta-gonists (5×) in the above buffer (1×) were prepared (96-well plates).
The activities of the pyrrolidine derivatives according to formula I were assessed using the above described in vitro biological assay. The values refer to the capacity of the example compounds according to formula I to effectively antagonize oxytocin-induced intracellular Ca^2+-mobilization mediated by the Oxytocin receptor.

[3] = test system: oxytocin-induced uterine contractions in the rat; test: In vivo model for inhibition of uterine contractions (oxytocin-induced, anaesthetised DES-treated rats); conditions: intravenous, PEG400/saline 50:50, 5 ml/kg infusion
Experimental: e) In Vivo Model for Inhibition of Uterine Contractions
Non-pregnant Charles River CD(SD) BR female rats (9–10 weeks old, 200–250 g) were treated at 18 and 24 hours before the experiment with 250 μg/kg, i.p. diethylstilbestrol (DES). For the assay, the animal was anaesthetised by urethane (1.75 g/kg, i.p.) and placed on an homeothermic operating table. The trachea was isolated and cannulated with a suitable polyethylene (PE) tubing. A midline incision at the hypogastrium level was made and one uterine horn exposed, its cephalic end cannulated with a PE240 tubing and, after filling the internal cavity with 0.2 ml of sterile physiological saline, connected to a “Gemini” amplifying/recording system via a P23ID Gould Statham pressure transducer. For the i.v. route of administration of the test compounds, one jugular vein was isolated and cannulated with a PE60 tubing connected to a butterfly needle to allow the administration by a dispensing syringe. In the case of intraduodenal administration of the test compounds, the duodenum was isolated and similarly cannulated through a small incision in its wall. One carotid artery was also isolated and cannulated with PE60 catheter and connected to a suitable syringe for blood sample collection (see below). After a stabilization period, the same dose of oxytocin was repeatedly injected intravenously at 30-min intervals. […] Further injections of the same dose of oxytocin were then made for a suitable time after treatment to assess inhibitory effects of the compounds under study. The contractile response of the uterus to oxytocin was quantified by measuring the intrauterine pressure and the number of contractions. The effect of the reference and test compounds were evaluated by comparing pre- and post-treatment pressure values. In addition, at 2, 30, 90 and 210 minutes after test compound administration, a 0.5-ml blood sample was withdrawn from the cannulated carotid artery of each experimental animal. Plasma was obtained by standard laboratory procedure and the resulting samples were stored at −20° C.
The activities of the pyrrolidine derivatives claimed in the formula I were assessed using the above described in vivo biological assay. The values refer to the capacity of the example compound according to formula I to effectively antagonize oxytocin-induced -uterine contractions in the rat.

| SMILES | IC50 (hOT-R [1]) | IC50 (hOT-R [2]) | other results |
| --- | --- | --- | --- |
| CON=C1C[C@@H](C(=O)NC[C@@H](O)c2ccccc2)N(C(=O)c2cccc(Oc3ccccc3)c2)C1 (racemic) [Example 278] | 2300 nM |  |  |
| CON=C1C[C@@H](C(=O)N[C@@H]2CCCC[C@H]2CO)N(C(=O)c2ccc(-c3ccccc3OC)cc2)C1 [Example 384, (2S,4EZ)-N-[(1R,2R)-2-(hydroxymethyl)cyclohexyl]-1-[(2′-methoxy[1,1′-biphenyl]-4-yl)carbonyl]-4-(methoxyimino)-2-pyrrolidinecarboxamide] | 550 nM |  |  |
| CON=C1C[C@@H](C(=O)N2CCC(O)CC2)N(C(=O)c2ccc(-c3ccccc3C)cc2)C1 [Example 372, (3EZ,5S)-5-[(4-hydroxy-1-piperidinyl)carbonyl]-1-[(2′-methyl[1,1′-biphenyl]-4-yl)carbonyl]-3-pyrrolidinone O-methyloxime] | 300 nM |  |  |
| CON=C1C[C@@H](C(=O)NCCC(N)=O)N(C(=O)c2ccc(-c3ccccc3C)cc2C)C1 [Example 410, (2S,4EZ)-N-(3-amino-3-oxopropyl)-1-[(2′,3-dimethyl[1,1′-biphenyl]-4-yl)carbonyl]-4-(methoxyimino)-2-prrolidinecarboxamide] | 540 nM |  |  |
| CON=C1C[C@@H](C(=O)NCC[C@@H](O)c2ccccc2)N(C(=O)c2ccc(-c3ccccc3C)cc2)C1 [Example 433, (2S,4EZ)-N-[(3R)-3-hydroxy-3-phenylpropyl]-4-(methoxyimino)-1-[(2′-methyl[1,1′-biphenyl]-4-yl)carbonyl]-2-pyrrolidinecarboxamide] |  | 320 nM |  |
| O=C(NCC(O)c1ccccc1)[C@@H]1C/C(=C/Cl)CN1C(=O)c1ccc(-c2ccccc2)cc1 (mixture of isomers) [(2S,4Z)-1-([1,1′-biphenyl]-4-ylcarbonyl)-4-(chloromethylene)-N-[(2RS)-2-hydroxy-2-phenylethyl]-2-pyrrolidinecarboxamide] | 350 nM |  |  |
| CO/N=C1/C[C@@H](C(=O)NC[C@@H](O)c2ccccc2)N(C(=O)c2ccc(-c3ccccc3C)cc2)C1 [drawing 18, (2S,4Z)-N-[(2S)-2-hydroxy-2-phenylethyl]-4-(methoxyimino)-1-[(2′-methyl[1,1′-biphenyl]-4-yl)carbonyl]-2-pyrrolidinecarboxamide] | 70 nM | 30 nM | % Reduction of Utenne Contraction ([3]; dose 0.3 mg/kg): −23.8 ± 4.1%; % Reduction of Utenne Contraction ([3]; dose 1 mg/kg): −27.6 ± 4.6%; % Reduction of Utenne Contraction ([3]; dose 3 mg/kg): −50.4 ± 5.8%; % Reduction of Utenne Contraction ([3]; dose 10 mg/kg): −65.6 ± 6.4%; % Reduction of Utenne Contraction ([3]; dose 30 mg/kg): −76.5 ± 4.24% |
| CO/N=C1\C[C@@H](C(=O)NC[C@@H](O)c2ccccc2)N(C(=O)c2ccc(-c3ccccc3C)cc2)C1 [drawing 17, (2S,4E)-N-[(2S)-2-hydroxy-2-phenylethyl]-4-(methoxyimino)-1-[(2′-methyl[1,1′-biphenyl]-4-yl)carbonyl]-2-pyrrolidinecarboxamide] | 130 nM | 70 nM |  |
| CON=C1C[C@@H](C(=O)NC[C@@H](O)c2ccccc2)N(C(=O)c2ccc(-c3ccccc3Cl)cc2)C1 [Example 438, (2S,4EZ)-N-[(2S)-2-hydroxy-2-phenylethyl]-4-(methoxyimino)-1-{[2′-chloro[1,1′-biphenyl]-4-yl]carbonyl}-2-pyrrolidinecarboxamide] | 170 nM |  |  |
| CO/N=C1/C[C@@H](C(=O)NCCO)N(C(=O)c2ccc(-c3ccccc3)cc2)C1 [(2S,4Z)-1-([1,1′biphenyl]-4-ylcarbonyl)-N-(2-hydroxyethyl)-4-(methoxyimino)-2-pyrrolidinecarboxamide] |  | 650 nM |  |
| CON=C1C[C@@H](C(=O)NCCCO)N(C(=O)c2ccc(-c3ccccc3C)cc2)C1 [Example 377, (2S,4EZ)-N-(3-hydroxypropyl)-4-(methoxyimino)-1-[(2′-methyl[1,1′-biphenyl]-4-yl)carbonyl]-2-pyrrolidinecarboxamide] | 370 nM |  |  |
| CO/N=C1/C[C@@H](c2nc3ccccc3[nH]2)N(C(=O)c2ccc(-c3ccccc3)cc2)C1 [(3Z,5S)-5-(1H-benzimidazol-2-yl)-1-([1,1′-biphenyl]-4-ylcarbonyl)-3-pyrrolidinone O-methyloxime] | 630 nM | 400 nM |  |
